Measured values taken from publication PMC5374710, “Discovery of the first dual GSK3β inhibitor/Nrf2 inducer. A new multitarget therapeutic strategy for Alzheimer’s disease” (Scientific Reports, 2017).
Read-outs that look alike come from different tables or passages of the source.

Experiments:
Nrf2 = test: Nrf2-dependent luciferase reporter assay in AREc32 cell line; type: cell-based; conditions: AREc32 cells; for EC50: Arec32, 24 h, read-out: CD (concentration required to double the luciferase reporter activity); for Nrf2 induction (luciferase activity), result in words: 24 h, compound 7 also at 60 and 100 μM
Protocol: Thereafter, we tested the ability of the compounds to induce the Nrf2 transcription factor. We used an Nrf2-dependent luciferase reporter assay in the AREc32 cell line[45]. Cells were cultured for 24 h and then treated with increasing concentrations of compounds 5a–t (0.3, 3, 10 and 30 μM), including the known inducer sulforaphane, containing an isothiocyanate motive as positive control.
AREc32 cells were plated in 96-well white plates (2 × 10^4 cells/well). After 24 h, cells were incubated with increasing concentrations of each compound in duplicate for 24 h. AREc32 cells express constitutively the plasmid pGL-8xARE that implements 8 copies of the EpRE sequences followed by luciferase reporter gen. Therefore, Nrf2 induction is related to the activation of EpRE sequences, expressing luciferase at the same extent as EpRE sequences are activated. The Luciferase Assay System (Promega E1500), was used according to provider protocol and luminescence was quantified in an Orion II microplate luminometer (Berthold, Germany). Fold induction of luciferase activity was normalized to basal conditions. Data are expressed as CD values, expressing the concentration required to double the luciferase activity. CD values are calculated from dose-response curves generated from fold induction of control conditions vs. inducer concentration and fitted by non-linear regression and data interpolated to 2-fold induction concentration.
Breast cancer cells stably transfected to express luciferase after EpRE sequences MCF-7/AREc32 named AREc32, were kindly provided by Dr. C. Roland Wolf (University of Dundee, UK).^14 AREc32 cells were maintained in DMEM with high glucose-glutamax, supplemented with 10 % FBS, 1 % penicillin-streptomycin (10,000 units), and geneticin (0.8 mg/ml G418) at 37 °C and in a 5 % CO2- air atmosphere.^14
AREc32 cells are constitutively transfected with the pGL-8xARE luciferase reporter gene, inserted after EpRE sequences. Thus, Nrf2 translocation to the nucleus induces the activation of the EpRE sequences, expressing their target phase II antioxidant genes, and expressing luciferase at the same extent.^15 AREc32 cells were plated in 96-well white plates (2X10^4 cells/well). After 24 h, cells were incubated with increasing concentrations of each compound in duplicate for 24 h (dissolved in DMSO to give a final 0.1 % vol/vol concentration of vehicle). Each plate included non-treated cells as basal luciferase expression and tBHQ (10 µM) as positive control. TBHQ is a potent Nrf2 inducer used as control in the development of the AREc32 cells.^14 Transfected clones are selected using G418. AREc32 cells express constitutively the plasmid pGL-8xARE that implements 8 copies of the EpRE sequences followed by a luciferase reporter gene. Therefore, the induction of Nrf2 is proportional to the activation of EpRE sequences, expressing luciferase at the same extent as EpRE sequences are activated. Luciferase production is then assessed by a bioluminescence assay. The Luciferase Assay System (Promega E1500), was used according to the Promega protocol and luminescence was quantified in an Orion II microplate luminometer (Berthold, Germany). Relative Light Units (RLU) were recorded for the contents of each well. Fold induction of luciferase activity was calculated by dividing the RLU obtained for the tests wells for each treatment by the average RLU obtained for the basal conditions. Data are expressed as CD values, expressing the concentration required to double the basal luciferase activity, used to quantify the Nrf2 induction potency. CD values are calculated from dose-response curves generated from fold induction of control conditions vs. inducer concentration and fitted by non-linear regression and data interpolated to value the 2-fold induction concentration, using GraphPad Prism software (San Diego, CA, USA).

primary rat glial cells [1] = test: Nitrite production in LPS-stimulated primary glial cultures (Griess); type: cell-based; conditions: Glial cell, 24 h pre-incubation, 18 h co-incubation with LPS 1 μg/mL, read-out: IC50 nitrite reduction
Text: (§1) Therefore, we envisaged the study of compounds 5a–t as potential anti-inflammatory agents. We used primary rat glial cells treated with lipopolysaccharide (LPS) to induce the production of nitrites and ROS as a model of glial activation. Nitrite production is directly proportional to the expression of the iNOS, that is over-expressed when LPS activates glial cells. ROS production is proportional to NOX activation after stimulation with LPS. Results are summarized in Table 2 as IC50s of nitrite production reduction and ROS production reduction. We have included sulforaphane as control in all experiments (see the Supporting Information).
Glial cells were pre-incubated with increasing concentrations of compounds for 24 hours. Then, treatments were removed and cells were incubated with LPS (1 μg/mL) alone or in presence of each compound at the desired concentration. Nitrite production was assessed 18 hours later by modified Griess assay. Briefly, samples (150 μl) were mixed with dapsone (75 μl) and NEDA (75 μl), and the mixture was incubated at room temperature for 5 min. Light absorption was measured at 550 nm in a microplate reader (Labtech, Offenburg, Germany). All data were normalized to basal nitrite production, considering this value as 100% of nitrite production. IC50 values were calculated from dose-response curves represented as percentage of nitrite production reduction induced by the different concentrations of each compound.
(§2) Mixed glial cultures were obtained from cerebral cortex of 2-5 day-old Sprague-Dawley rats. After removal of blood vessels and meninges, the forebrains were dissociated in DMEM/F12 medium. After mechanical dissociation, cells were plated (3x10^5 cells/ml) in DMEM/F12 medium with 20% fetal bovine serum (FBS) and 1 % penicillin/streptomycin (10,000 units), at 37 °C and in a 5 % CO2-supplemented air atmosphere. After 5 days, medium was substituted by DMEM/F12 medium with 10 % FBS. Cells were cultured for 7-10 days before treatment.
Primary rat glial cells were treated with compounds 5a-t at increasing concentrations (3, 10, 30 and 60 µM) during 24 h. Thereafter, treatments were removed and glial cells were co-incubated with increasing concentrations of each compound and LPS (1 µg/mL) for 18 h more. At the end of this period, supernatant was collected and the presence of nitrites was analyzed by the Griess method with modifications.^20 Each plate included non-treated cells as basal nitrite production, sulforaphane (SFN, 10 µM) as positive control. Briefly, samples (150 µl) were mixed with DAPSONE (75 µl) and NEDA (75 µl), and the mixture was incubated at room temperature for 5 min. Light absorption was measured at 550 nm in a microplate reader (Labtech, Offenburg, Germany). All data were normalized to basal nitrite production, considering this value as 100% of nitrite production. EC50 values were calculated from dose-response curves represented as percentage of nitrite production reduction induced by the different concentrations of each compound. Concentration response curves were fitted by non-linear regression analysis of individual concentration-response curves using GraphPad Prism software (San Diego, CA, USA). EC50 values are expressed as mean ± SEM of four different experiments in triplicate.

primary rat glial cells [2] = test: ROS production in LPS-stimulated primary glial cultures (H2DCFDA); type: cell-based; conditions: Glial cell, 24 h pre-incubation, 18 h co-incubation with LPS, 3 h with fluorescent dye, read-out: IC50 ROS reduction
Text: as §1
Besides the increase in nitrite production, it is well known that LPS stimulation of microglia also induces the activation of NOX, which induces superoxide free radical production. In fact, this mechanism is synergistic with the expression of iNOS and the production of nitrites. In this respect, there is a body of evidence showing that NOX activation is a major contributor to ROS oxidative stress and neuronal death in AD[57][58]. […] In general, potency to reduce ROS production increased from ortho to para and meta as observed above.
(§3) Primary glial cells were cultured in bottom transparent 96-well black plates following standard protocol. Cells were pre-incubated with the corresponding compound at the selected concentrations, for 24 hours, and therafter, co-incubated with the corresponding compound and LPS (1 μM) during 18 h more. Then, treatments were removed and cells were loaded with the fluorescent probe 2′,7′-dichlorodihydrofluorescein diacetate (H2DCFDA) (10 μM) for 45 minutes in serum free glial culture medium. All experiments included cells treated with culture medium alone (basal). Cells were washed twice with culture medium and fluorescence intensity was recorded in a Fluostar Optima multiwall pate reader (BMG Labtech, Offenburg, Germany) at 485/520 nm as excitation and emission wavelengths respectively, each hour, during 3 hours period. Data were normalized with respect to basal conditions that were considered as 100%.
as §3, with “µM)” for “μM)”, “2',7'-dichlorodihydrofluorescein” for “2′,7′-dichlorodihydrofluorescein”
as §2

SH-SY5Y cells [3] = conditions: human, 24 h
Protocol: (§4) Viability was measured as MTT reduction in presence of increasing concentrations of derivatives. Values are expressed as LD50 calculated from dose-response curves of four different concentrations.
(§5) Cells were cultured in 48-well (SH-SY5Y, 1x10^5 cells per well) or 96-well plates (HepG2, 1x10^5 cells per well) for 24 h. […] Control cells were incubated with the same concentration of DMSO (0.1 % final concentration) without any drug.

HepG2 cells [4] = conditions: human, 24 h
Protocol: (§6) Thus, it is relevant to study the potential neurotoxicity and hepatotoxicity of the novel dual GSK3β inhibitors-Nrf2 inducers 5a–t.
as §4
(§7) HepG2 cells were cultured according to supplier indications in EMEM supplemented with 10 % heat-inactivated FBS, 100 µg/mL streptomycin and 100 units/mL penicillin. Cells were maintained at 37 °C in humidified atmosphere of 95 % air and 5 % CO2. For experimental procedures, cells were cultured in 96-well plates at density of 1x10^5 cells/well. Treatments were performed in 1% FBS medium unless other concentration was specified. Cells were used from 4 up to 13 passages.
as §5

GSK3β [5] = biological target: T1, GSK3β (Homo sapiens, UniProt P49841); test: GSK3β inhibition, luminescence Kinase-Glo assay; type: biochemical; conditions: for Ki: calculated from IC50 by Cheng-Prusoff equation, Km ATP 2.345 µM, read-out: Ki (apparent equilibrium dissociation constant); for IC50: four concentrations 0.1, 1, 10, 30 μM, ATP 1 μM, 1 h
T1 construct: purchased Promega V1991
Protocol: GSK3β inhibitory activity was evaluated using the method developed by Baki[66], with modifications. Compounds were dissolved in assay buffer, containing 40 mM Tris (pH 7.5), 20 mM MgCl2, 0.1 mg/ml BSA (bovine serum albumin) and 50 μM dithiothreitol (DTT) at the desired concentrations. Firstly, 10 μl of enzyme (10 ng) and 10 μl of each compound were mixed for 30 min. Then, 20 μl of a mixture of ATP (1 μM) and GSK3β peptidic substrate were added to each well. The mixture was incubated for 60 min at 30 °C. Thereafter, the remaining ATP concentration was measured with the Kinase-Glo system following instructions from the supplier. Luminescence was measured in an Orion II microplate luminometer (Berthold, Germany) as relative light units (RLU). […] IC50 values were calculated by non-linear regression analysis of individual concentration-response curves using GraphPad Prism 5.0 software (San Diego, CA, USA).
The ability of the compounds to inhibit GSK3β was evaluated using the method developed by Baki^9 with some modifications. The tested compounds were dissolved in assay buffer, containing 40 mM Tris (pH 7.5), 20 mM MgCl2, 0.1 mg/ml BSA (bovine serum albumin) and 50 µM dithiothreitol (DTT), to achieve final reaction concentrations of 0.1, 1, 10 and 30 µM. […] The GSK3β inhibition assay was performed in white 96-well plates, in duplicates. Firstly, 10 µl of enzyme (10 ng) were added to each well, followed by 10 µl of the compounds at the desired concentration. After 30 minutes, 20 µl of a mixture of ATP and GSK3β peptidic substrate were added to each well, achieving a final concentration of 1 µM of ATP and 25 of µM peptidic substrate. The mixture was incubated at 30 °C for 60 minutes. Once the reaction was finished, the remaining ATP concentration was measured by adding 40 µl/well of Kinase-Glo reagent. The luminescence was measured in an Orion II microplate luminometer (Berthold, Germany) as relative light units (RLU). The luminescence recorded is proportional to the amount of ATP present in each well.
Apparent Ki for each compound were calculated from GSK3β Km value for ATP, applying the Cheng-Prusoff equation^10,11 in its simplified form: Ki = IC50/(1+([S]/Km)), in which S refers to the ATP concentration and Km is the Michaelis constant of the substrate for GSK3β.

GSK3β [6] = biological target: T1, GSK3β; conditions: cited from earlier work
SH-SY5Y cells [7] = test: Neuroprotection against okadaic acid (tau hyperphosphorylation), MTT; type: cell-based; conditions: 1 μM, 24 h pre-incubation, 18 h co-incubation with OA 20 nM
[8] = biological target: T2, Nrf2-Keap1 protein-protein interaction (Homo sapiens, UniProt Q14145); test: Fluorescence polarization assay of Nrf2-Keap1 interaction; type: binding; conditions: ligand concentration 10 µM; read-out: FP % Inhibition (± SEM)
T2 construct: a solution of the Keap1 Kelch domain (200 nM)
Protocol: Data are presented the means ± SEM of two experiments performed in triplicate.
The FP assay was carried out as previously described.^16,17 Inhibitors (10 µM) were plated onto untreated Corning® black 96 well plates containing a solution of the Keap1 Kelch domain (200 nM) and the fluorescent peptide FITC-β-DEETGEF-OH (1 nM) in Dulbecco’s Phosphate Buffered Saline (DPBS) at pH 7.4 (11% final DMSO concentration, 100 µL final volume). Following a 30 min incubation under slow agitation and away from light at room temperature, the plates were transferred to a PHERAstar microplate reader (BMG Labtech, Ortenberg, Germany) and the fluorescence polarisation was recorded. All measurements were recorded in triplicate.

Keap1 Kelch domain = biological target: T3, Keap1 Kelch domain (Homo sapiens, UniProt Q14145); test: Differential scanning fluorimetry assay; type: binding; conditions: ligand concentration 10 µM
T3 construct: A solution of the Keap1 Kelch domain protein (5 µM)
Protocol: A solution of the Keap1 Kelch domain protein (5 µM) and detection dye SYPRO® orange (5X) in DPBS at pH 7.4 was added onto a qPCR plate containing the compound inhibitor (10 µM, 10% final DMSO concentration, 40 µL final volume). The plate was sealed using an optical foil seal and covered with aluminum foil to protect the dye from light. The plate was then transferred to a plate centrifuge and spun down briefly (200 G, 1 min, room temperature) to remove any bubbles and collect the solution at the bottom of the wells. Following a 30 min incubation at room temperature, the plate was placed into a 7500 Real time PCR machine and the fluorescence intensity at an excitation of 465 nm and emission of 580 nm was recorded during a temperature scan from 25 °C to 95 °C with a temperature ramping rate of 1 °C/min. All measurements were run in triplicate. Life Technologies software was used to set up the run on 7500 Software v.2.0.0 and the initial data processing was carried out on Protein thermal shift solution software. The raw data were exported to MS Excel and analysis was performed using a custom script provided by the Structural Genomics Consortium Oxford.^18 The temperature range over which the protein unfolding occurred was selected and the maximum and minimum (at temperatures below the maximum intensity) fluorescence intensities within this range were determined. The processed data were fitted to the Boltzmann equation by non-linear regression using the Origin Pro software.

HepG2 cells [9] = test: Hepatotoxicity in HepG2 cell line (MTT); conditions: 24 h
Protocol: as §6, §4, §7, §5

SH-SY5Y cells [10] = test: Cytotoxicity in SH-SY5Y neuroblastoma cell line (MTT); conditions: 24 h
Protocol: as §4, §5

T1 sequence (P49841 whole entry): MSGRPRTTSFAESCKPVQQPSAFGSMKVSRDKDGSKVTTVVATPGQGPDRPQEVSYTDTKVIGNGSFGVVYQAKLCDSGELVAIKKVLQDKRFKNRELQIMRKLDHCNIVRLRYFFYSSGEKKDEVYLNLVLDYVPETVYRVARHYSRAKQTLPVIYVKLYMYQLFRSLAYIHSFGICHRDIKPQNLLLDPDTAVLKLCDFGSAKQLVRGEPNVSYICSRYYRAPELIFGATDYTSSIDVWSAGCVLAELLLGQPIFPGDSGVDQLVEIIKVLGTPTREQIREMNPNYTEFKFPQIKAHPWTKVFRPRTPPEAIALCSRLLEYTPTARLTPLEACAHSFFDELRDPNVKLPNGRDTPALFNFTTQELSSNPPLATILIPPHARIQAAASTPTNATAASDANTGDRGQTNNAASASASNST
T2 sequence (Q14145 321-609 limits assumed): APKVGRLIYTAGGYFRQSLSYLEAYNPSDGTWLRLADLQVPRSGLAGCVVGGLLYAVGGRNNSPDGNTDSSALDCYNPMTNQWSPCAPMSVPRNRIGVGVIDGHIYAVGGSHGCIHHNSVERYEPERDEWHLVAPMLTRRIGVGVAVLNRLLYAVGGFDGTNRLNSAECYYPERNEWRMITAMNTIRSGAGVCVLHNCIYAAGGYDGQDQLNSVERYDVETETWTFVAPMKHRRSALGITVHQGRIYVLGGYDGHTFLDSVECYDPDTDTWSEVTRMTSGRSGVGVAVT
T3 sequence (Q14145 321-609 limits assumed): as above

Ki (GSK3β [5]) | IC50 (GSK3β [5]) | Compound | EC50 (Nrf2) | IC50 (primary rat glial cells [1]) | IC50 (primary rat glial cells [2]) | Nrf2 induction (luciferase activity), result in words (Nrf2) | SH-SY5Y LD50 (SH-SY5Y cells [3]) | HepG2 LD50 (HepG2 cells [4]) | other results
 |  | C[S+]([O-])CCCCN=C=S (stereo not shown) [Sulforaphane] | 0.54 ± 0.07 µM | 1.4 ± 0.3 µM | 2.84 ± 0.55 µM |  |  |  | 
 |  | Cn1cc(C2=C(c3ccc(Cl)cc3Cl)C(=O)NC2=O)c2ccccc21 [SB216763, reference compound] | > 30 µM |  |  | inability of the GSK3β inhibitor SB216763 to induce Nrf2 transcriptional activity | > 100 µM | > 100 µM | 
13.1 µM | 18.6 ± 0.4 µM | Cc1[nH]nc2c1C(c1ccccc1)C(C#N)=C(N)N2 (stereo not shown) [Compound 7, 6-amino-3-methyl-4-phenyl-4,7-dihydro-2H-pyrazolo[3,4-b]pyridine-5-carbonitrile] |  |  |  | completely unable to induce Nrf2 |  |  | 
 |  | N#Cc1c(N)nc2[nH]nc(N)c2c1-c1ccccc1 [Compound 2] |  |  |  |  |  |  | IC50 (GSK3β [6]): 1.5 µM
 |  | COc1ccc2[nH]cc(CCNC(C)=O)c2c1 [Melatonin] |  |  |  |  | > 100 µM | > 100 µM | 
5.8 µM | 8.28 ± 0.7 µM | Cc1[nH]nc2c1C(c1ccncc1)C(C#N)=C(N)O2 (stereo not shown) [Compound 5t, 6-Amino-3-methyl-4-(pyridin-4-yl)-2,4-dihydropyrano[2,3-c]pyrazole-5-carbonitrile] |  | 28.8 ± 3.61 µM | 37.8 ± 1.17 µM |  |  |  | Percentage of protection against okadaic acid toxicity (SH-SY5Y cells [7]): over 50%; inhibition at 10 µM [8]: 1.24 ± 3.22%; ΔTm at 10 µM (Keap1 Kelch domain): -0.53 ± 0.28 °C; HepG2 LD50 (HepG2 cells [9]): > 100 µM; SH-SY5Y LD50 (SH-SY5Y cells [10]): > 100 µM
